According to US20250025488A1, “NUCLEIC ACIDS FOR INHIBITING EXPRESSION OF TMPRSS6 AND IRON CHELATORS” (SILENCE THERAPEUTICS GMBH, priority 2018, published 2025):
Oligonucleotides are written 5' to 3', each unit as a sugar letter and its base; * is a phosphorothioate linkage, no mark a phosphodiester; rarer units and linkages stand in square brackets, end groups in braces. Plain capitals give the bases only. m = 2'-O-methyl; f = 2'-fluoro

What was measured:
[1] = biological target: T1, Asialoglycoprotein receptor (ASGP-R) (Homo sapiens, UniProt P07306+P07307); details: higher affinity; cited from earlier work
T1 sequence (P07306 1-291): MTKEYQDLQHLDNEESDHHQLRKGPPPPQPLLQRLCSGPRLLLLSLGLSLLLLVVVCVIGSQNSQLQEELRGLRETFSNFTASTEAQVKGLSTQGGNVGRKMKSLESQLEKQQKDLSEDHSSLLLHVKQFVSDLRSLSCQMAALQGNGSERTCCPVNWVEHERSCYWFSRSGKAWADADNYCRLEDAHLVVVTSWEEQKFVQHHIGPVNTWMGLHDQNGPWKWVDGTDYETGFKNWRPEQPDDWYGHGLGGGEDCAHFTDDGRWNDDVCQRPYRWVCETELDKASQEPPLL
T1 sequence (P07307 1-311): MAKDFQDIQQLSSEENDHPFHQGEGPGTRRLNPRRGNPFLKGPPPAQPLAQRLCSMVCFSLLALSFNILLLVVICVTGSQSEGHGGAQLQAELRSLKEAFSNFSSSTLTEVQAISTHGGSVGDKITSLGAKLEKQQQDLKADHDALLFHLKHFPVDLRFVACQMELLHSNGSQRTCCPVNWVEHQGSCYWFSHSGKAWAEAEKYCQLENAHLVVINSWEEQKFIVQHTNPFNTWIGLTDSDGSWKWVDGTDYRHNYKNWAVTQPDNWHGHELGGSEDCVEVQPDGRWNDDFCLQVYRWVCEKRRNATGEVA

TMPRSS6 mRNA [2] = assay: Dose response of TMPRSS6 nucleic acids for inhibition of TMPRSS6 expression in human Hep3B cells; format: cell-based; details: 30-0.003 nM nucleic acid (Luciferase 30 and 10 nM) + 1 μg/ml AtuFECT, two days, normalized to PTEN
Procedure: Cells were plated at a cell density of 150,000 cells per 6 well dish. The following day cells were transfected with 1 μg/ml AtuFECT (50:50 formulation of cationic lipid Atufect01 and fusogenic lipid DPhyPE) and different amounts of TMPRSS6 nucleic acids (30; 10; 3; 1; 0.3; 0.1, 0.003 nM, respectively) as depicted by the X-axis of the graph in FIG. 2. For non targeting control samples, cells were transfected with 30 and 10 nM nucleic acid for Luciferase. Two days after the transfection cells were lysed and mRNA levels were determined by q-RT-PCR. TMPRSS6 mRNA levels were normalized to the expression levels of the house keeping gene PTEN. […] Sequences of RNAi molecules are depicted in Table 1.

TMPRSS6 mRNA [3] = assay: Dose-response of siRNAs against TMPRSS6 in Hep3B cells; format: cell-based, human; details: siRNA 100 nM-0.03 nM + 1 μg/ml AtuFECT, two days after transfection, TMPRSS6 mRNA normalized to ApoB, from dose-response curves FIG. 35; for Max inhibition: relative to 100 nM Luciferase-control siRNA
Procedure: 8000 cells per well were plated in 96-well plates. The following day cells were transfected with siRNA in indicated concentrations (100 nM-0.03 nM) and 1 μg/ml AtuFECT. Two days after transfection cells were lysed and TMPRSS6 mRNA levels were determined by q-RT-PCR. TMPRSS6 mRNA levels were normalized to expression levels of the house keeping gene ApoB. Average inhibition and standard deviation of triplicate values relative to cells treated with 100 nM of a non-targeting Luciferase-control siRNA are shown in FIG. 35.

TMPRSS6 mRNA [4] = assay: Reduction of TMPRSS6 mRNA expression by different siRNAs in Hep3B cells (20 nM, 96-well); format: cell-based, human; details: 20 nM siRNA + 1 μg/ml AtuFECT, two days after transfection, TMPRSS6 mRNA normalized to ApoB, relative to untreated cells
Procedure: 8000 cells per well were plated in 96-well plates. The following day cells were transfected with 20 nM siRNA and 1 μg/ml AtuFECT. Two days after transfection cells were lysed and TMPRSS6 mRNA levels were determined by q-RT-PCR. TMPRSS6 mRNA levels were normalized to expression levels of the house keeping gene ApoB. An siRNAs against Luciferase was used as non targeting control.

Molecule: CC(=O)N[C@H]1C(O)O[C@H](CO)[C@H](O)[C@@H]1O (stereo partly drawn) [N-Acetyl-D-Galactosylamine (GalNAc), 2-(Acetylamino)-2-deoxy-D-galactopyranose]
- Affinity of ASGP-R for GalNAc relative to D-Gal [1]: 50 fold

Molecule: Luciferase nucleic acid: non targeting control nucleic acid for Luciferase, SEQ ID NO 31/32 (chain 1 UCGAAGUAUUCCGCGUACG; chain 2 CGUACGCGGAAUACUUCGA; listed as RNA, chemistry not given here) [reference compound]
- TMPRSS6 mRNA expression (TMPRSS6 mRNA [2]): did not affect TMPRSS6 mRNA levels

Molecule: TMPRSS6-hcm9: siRNA, SEQ ID NO 17/18, alternating 2′OMe/2′F; TMP01 = strands TMPJH01A/TMPJH01B, same chemistry (chain 1 AACCAGAAGAAGCAGGUGA; chain 2 UCACCUGCUUCUUCUGGUU; chain 1: sugars from the 5' end mfmfmfmfmfmfmfmfmfm, backbone not given here; chain 2: sugars from the 5' end fmfmfmfmfmfmfmfmfmf, backbone not given here; further chemistry not fully specified)
- TMPRSS6 mRNA expression (TMPRSS6 mRNA [2]): highest reduction of TMPRSS6 mRNA expression

Molecule: TMPRSS6-hcmr-24: siRNA against TMPRSS6, SEQ ID NO 209/210 (chain 1 mCfUmCfAmCfCmUfUmGfAmAfGmGfAmCfAmCfCmU; chain 2 fAmGfGmUfGmUfCmCfUmUfCmAfAmGfGmUfGmAfG)
- IC50 (TMPRSS6 mRNA [3]): 0.8 nM
- Max inhibition (TMPRSS6 mRNA [3]): 73%
- kd at 20 nM as shown in FIG. 34 (TMPRSS6 mRNA [4]): 70%

Molecule: TMPRSS-SR-5: siRNA against TMPRSS6, strands hcTMP-SR5-A/B, SEQ ID NO 141/142 (chain 1 mGfGmUfGmCfUmGfAmGfGmAfCmGfCmCfCmUfGmG; chain 2 fCmCfAmGfGmGfCmGfUmCfCmUfCmAfGmCfAmCfC)
- IC50 (TMPRSS6 mRNA [3]): 8.4 nM
- Max inhibition (TMPRSS6 mRNA [3]): 100%
- kd at 20 nM as shown in FIG. 34 (TMPRSS6 mRNA [4]): 85%

Molecule: TMPRSS-SR-16: siRNA against TMPRSS6, strands hcTMP-SR16-A/B, SEQ ID NO 158 (as printed)/160 (chain 1 CUCAGCACCCCGUACUUCC; chain 2 UCAGCACCCCGUACUUCCC; listed as RNA, chemistry not fully specified)
- IC50 (TMPRSS6 mRNA [3]): 8.4 nM
- Max inhibition (TMPRSS6 mRNA [3]): 100%
- kd at 20 nM as shown in FIG. 34 (TMPRSS6 mRNA [4]): 88%

Molecule: TMPRSS-SR-21: siRNA against TMPRSS6, SEQ ID NO 167/168 (chain 1 mAfGmCfUmGfGmGfGmAfAmGfUmAfCmGfGmGfGmU; chain 2 fAmCfCmCfCmGfUmAfCmUfUmCfCmCfCmAfGmCfU)
- IC50 (TMPRSS6 mRNA [3]): 5.8 nM
- Max inhibition (TMPRSS6 mRNA [3]): 100%
- kd at 20 nM as shown in FIG. 34 (TMPRSS6 mRNA [4]): 92%

Molecule: TMPRSS-SR-27: siRNA against TMPRSS6, SEQ ID NO 177/178 (chain 1 mAfGmUfAmGfUmAfGmCfUmGfGmGfGmAfAmGfUmA; chain 2 fUmAfCmUfUmCfCmCfCmAfGmCfUmAfCmUfAmCfU)
- IC50 (TMPRSS6 mRNA [3]): 2.8 nM
- Max inhibition (TMPRSS6 mRNA [3]): 94%
- kd at 20 nM as shown in FIG. 34 (TMPRSS6 mRNA [4]): 84%

Molecule: TMPRSS-hc-16: siRNA against TMPRSS6, SEQ ID NO 195/196 (chain 1 mUfAmUfUmCfCmAfAmAfGmGfGmCfAmGfCmUfGmA; chain 2 fUmCfAmGfCmUfGmCfCmCfUmUfUmGfGmAfAmUfA)
- IC50 (TMPRSS6 mRNA [3]): 7.7 nM
- Max inhibition (TMPRSS6 mRNA [3]): 100%
- kd at 20 nM as shown in FIG. 34 (TMPRSS6 mRNA [4]): 91%

Molecule: TMPRSS-hc-17: siRNA against TMPRSS6, SEQ ID NO 197/198 (chain 1 AUCUUCUGGGCUUUGGCGG; chain 2 CCGCCAAAGCCCAGAAGAU; chain 1: sugars from the 5' end mfmfmfmfmfmfmfmfmfm, backbone not given here; chain 2: sugars from the 5' end fmfmfmfmfmfmfmfmfmf, backbone not given here)
- IC50 (TMPRSS6 mRNA [3]): 2.4 nM
- Max inhibition (TMPRSS6 mRNA [3]): 82%
- kd at 20 nM as shown in FIG. 34 (TMPRSS6 mRNA [4]): 79%

Molecule: TMPRSS-hc-18: siRNA against TMPRSS6, SEQ ID NO 199/200 (chain 1 UUUUCUCUUGGAGUCCUCA; chain 2 UGAGGACUCCAAGAGAAAA; chain 1: sugars from the 5' end mfmfmfmfmfmfmfmfmfm, backbone not given here; chain 2: sugars from the 5' end fmfmfmfmfmfmfmfmfmf, backbone not given here)
- IC50 (TMPRSS6 mRNA [3]): 4.6 nM
- Max inhibition (TMPRSS6 mRNA [3]): 95%
- kd at 20 nM as shown in FIG. 34 (TMPRSS6 mRNA [4]): 90%

Molecule: TMPRSS-hc-19: siRNA against TMPRSS6, SEQ ID NO 201/202 (chain 1 mGfAmAfUmAfGmAfCmGfGmAfGmCfUmGfGmAfGmU; chain 2 fAmCfUmCfCmAfGmCfUmCfCmGfUmCfUmAfUmUfC)
- IC50 (TMPRSS6 mRNA [3]): 6.1 nM
- Max inhibition (TMPRSS6 mRNA [3]): 100%
- kd at 20 nM as shown in FIG. 34 (TMPRSS6 mRNA [4]): 89%

Molecule: TMPRSS-hc-22: siRNA against TMPRSS6, SEQ ID NO 205/206 (chain 1 mAfGmAfUmCfCmUfGmGfGmAfGmAfAmGfUmGfGmC; chain 2 fGmCfCmAfCmUfUmCfUmCfCmCfAmGfGmAfUmCfU)
- IC50 (TMPRSS6 mRNA [3]): 8.1 nM
- Max inhibition (TMPRSS6 mRNA [3]): 99%
- kd at 20 nM as shown in FIG. 34 (TMPRSS6 mRNA [4]): 73%

Molecule: TMPRSS-hc-23: siRNA against TMPRSS6, SEQ ID NO 207/208 (chain 1 CUGUUCUGGAUCGUCCACU; chain 2 AGUGGACGAUCCAGAACAG; chain 1: sugars from the 5' end mfmfmfmfmfmfmfmfmfm, backbone not given here; chain 2: sugars from the 5' end fmfmfmfmfmfmfmfmfmf, backbone not given here)
- IC50 (TMPRSS6 mRNA [3]): 4.6 nM
- Max inhibition (TMPRSS6 mRNA [3]): 83%
- kd at 20 nM as shown in FIG. 34 (TMPRSS6 mRNA [4]): 70%

Molecule: TMPRSS-hcm-25: siRNA against TMPRSS6, SEQ ID NO 211/212 (chain 1 AGUUUCUCUCAUCCAGGCC; chain 2 GGCCUGGAUGAGAGAAACU; chain 1: sugars from the 5' end mfmfmfmfmfmfmfmfmfm, backbone not given here; chain 2: sugars from the 5' end fmfmfmfmfmfmfmfmfmf, backbone not given here)
- IC50 (TMPRSS6 mRNA [3]): 4.6 nM
- Max inhibition (TMPRSS6 mRNA [3]): 87%
- kd at 20 nM as shown in FIG. 34 (TMPRSS6 mRNA [4]): 85%

Molecule: TMPRSS-hcr-26: siRNA against TMPRSS6, SEQ ID NO 213/214 (chain 1 GUACCCUAGGAAAUACCAG; chain 2 CUGGUAUUUCCUAGGGUAC; chain 1: sugars from the 5' end mfmfmfmfmfmfmfmfmfm, backbone not given here; chain 2: sugars from the 5' end fmfmfmfmfmfmfmfmfmf, backbone not given here)
- IC50 (TMPRSS6 mRNA [3]): 3.5 nM
- Max inhibition (TMPRSS6 mRNA [3]): 100%
- kd at 20 nM as shown in FIG. 34 (TMPRSS6 mRNA [4]): 98%
